In the NIST ThermoML archive (doi:10.1021/je400102p):

Assay: relative permittivity at various frequencies (dimensionless)
Conditions: Liquid, Frequency=0.001 MHz, Concentric Cylinder Capacitor

Cc1ccccc1 [toluene]
Conditions | relative permittivity
303.15 K, 312 kPa | 2.37527
303.15 K, 1015 kPa | 2.37634
303.15 K, 5058 kPa | 2.38253
303.15 K, 10116 kPa | 2.38999
303.15 K, 20221 kPa | 2.40447
303.15 K, 30317 kPa | 2.41824
303.15 K, 40408 kPa | 2.43058
303.15 K, 50497 kPa | 2.44313
303.15 K, 60603 kPa | 2.45469
333.15 K, 402 kPa | 2.31204
333.15 K, 995 kPa | 2.3134
333.15 K, 5053 kPa | 2.32081
333.15 K, 10114 kPa | 2.32958
333.15 K, 20221 kPa | 2.34637
333.15 K, 30317 kPa | 2.36168
333.15 K, 40419 kPa | 2.3756
333.15 K, 50510 kPa | 2.38883
333.15 K, 60615 kPa | 2.40129
363.15 K, 314 kPa | 2.24824
363.15 K, 1010 kPa | 2.2498
363.15 K, 5053 kPa | 2.25867
363.15 K, 10108 kPa | 2.26912
363.15 K, 10109 kPa | 2.26918
363.15 K, 10111 kPa | 2.26913
363.15 K, 20229 kPa | 2.28839
363.15 K, 20231 kPa | 2.28835
363.15 K, 20232 kPa | 2.28831
363.15 K, 30317 kPa | 2.30557
363.15 K, 30325 kPa | 2.30571
363.15 K, 40408 kPa | 2.32135
363.15 K, 50502 kPa | 2.33608
363.15 K, 50510 kPa | 2.33603
363.15 K, 60614 kPa | 2.3499
363.15 K, 60624 kPa | 2.34978
393.15 K, 1622 kPa | 2.18753
393.15 K, 5063 kPa | 2.19687
393.15 K, 5070 kPa | 2.19705
393.15 K, 10114 kPa | 2.20937
393.15 K, 10123 kPa | 2.20955
393.15 K, 20223 kPa | 2.23281
393.15 K, 20234 kPa | 2.23259
393.15 K, 30331 kPa | 2.2527
393.15 K, 40414 kPa | 2.27067
